Several values for one entry are separate records, joined by “and”; a condition that tells them apart may be missing. Identical values can stand only once.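 All cell lines were grown in 96-well plates and treated with compound for 48 hours. At the GI50, growth is halved.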 Activity calls are given as the source filed them. Rule as the data show it: active = GI50 up to about 1.1 µM and inactive = higher.
Key:
Assay in all cases: DTP human tumour cell line panel, 48 h
HCT-116 = tested on: HCT-116
SK-MEL-28 = tested on: SK-MEL-28
A498 = tested on: A498
T47D = tested on: T47D
A549 = tested on: A549
NCI/ADR-RES = tested on: NCI/ADR-RES
OVCAR-8 = tested on: OVCAR-8
OVCAR-3 = tested on: OVCAR-3
MDA-MB-231 = tested on: MDA-MB-231
HCT-15 = tested on: HCT-15
COLO 205 = tested on: COLO 205
U-251 = tested on: U-251
RXF 393 = tested on: RXF 393
SR = tested on: SR
NCI-H226 = tested on: NCI-H226
TK-10 = tested on: TK-10
ACHN = tested on: ACHN
UACC-62 = tested on: UACC-62
Malme-3M = tested on: Malme-3M
LOX IMVI = tested on: LOX IMVI
HOP-92 = tested on: HOP-92
MOLT-4 = tested on: MOLT-4
OVCAR-5 = tested on: OVCAR-5
M14 = tested on: M14
SK-MEL-5 = tested on: SK-MEL-5
HL-60 = tested on: HL-60
CCRF-CEM = tested on: CCRF-CEM
HOP-62 = tested on: HOP-62
NCI-H522 = tested on: NCI-H522
MCF7 = tested on: MCF7
HCC 2998 = tested on: HCC 2998
SK-MEL-2 = tested on: SK-MEL-2
DU-145 = tested on: DU-145
MDA-MB-435 = tested on: MDA-MB-435
SK-OV-3 = tested on: SK-OV-3
NCI-H460 = tested on: NCI-H460
SN12C = tested on: SN12C
HT-29 = tested on: HT-29
CAKI-1 = tested on: CAKI-1
BT-549 = tested on: BT-549
RPMI-8226 = tested on: RPMI-8226
PC-3 = tested on: PC-3
UACC-257 = tested on: UACC-257
SF-539 = tested on: SF-539
786-0 = tested on: 786-0
SF-295 = tested on: SF-295
OVCAR-4 = tested on: OVCAR-4
NCI-H23 = tested on: NCI-H23
K562 = tested on: K562
EKVX = tested on: EKVX
IGROV-1 = tested on: IGROV-1
SNB-19 = tested on: SNB-19
SW-620 = tested on: SW-620
SNB-75 = tested on: SNB-75
SF-268 = tested on: SF-268

CNC(=O)OCC1C2=C(C(=O)C(C)=C(N)C2=O)N2CC3C(N3C)C12OC (stereo not given)
GI50 (HCT-116): 10.9 µM (inactive)
GI50 (SK-MEL-28): 47.9 µM (inactive)
GI50 (A498): 15.3 µM (inactive)
GI50 (T47D): 21.9 µM (inactive)
GI50 (A549): 1.83 µM (inactive)
GI50 (NCI/ADR-RES): 32.5 µM (inactive)
GI50 (OVCAR-8): 11.4 µM (inactive)
GI50 (OVCAR-3): 26.5 µM (inactive)
GI50 (MDA-MB-231): > 100 µM (inactive)
GI50 (HCT-15): 12.1 µM
GI50 (COLO 205): 13.6 µM (inactive)
GI50 (U-251): 14.1 µM (inactive)
GI50 (RXF 393): 21.3 µM (inactive)
GI50 (SR): 0.867 µM (active)
GI50 (NCI-H226): 32.1 µM (inactive)
GI50 (TK-10): 27.7 µM (inactive)
GI50 (ACHN): 3.8 µM (inactive)
GI50 (UACC-62): 9.93 µM (inactive)
GI50 (Malme-3M): 2.38 µM (inactive)
GI50 (LOX IMVI): 9.91 µM (inactive)
GI50 (HOP-92): 23.7 µM (inactive)
GI50 (MOLT-4): 3.29 µM (inactive)
GI50 (OVCAR-5): 72.8 µM (inactive)
GI50 (M14): 7.24 µM (inactive)
GI50 (SK-MEL-5): 11.5 µM (inactive)
GI50 (HL-60): 1.92 µM (inactive)
GI50 (CCRF-CEM): 3.76 µM (inactive)
GI50 (HOP-62): 14.4 µM (inactive)
GI50 (NCI-H522): 3.19 µM (inactive)
GI50 (MCF7): 3.29 µM (inactive)
GI50 (HCC 2998): 12.4 µM (inactive)
GI50 (SK-MEL-2): 26.1 µM (inactive)
GI50 (DU-145): 2.47 µM (inactive)
GI50 (MDA-MB-435): 38.1 µM (inactive)
GI50 (SK-OV-3): 28.9 µM (inactive)
GI50 (NCI-H460): 86.7 nM (active)
GI50 (SN12C): 5.61 µM (inactive)
GI50 (HT-29): 10.3 µM (inactive)
GI50 (CAKI-1): 3.16 µM (inactive)
GI50 (BT-549): 31.8 µM (inactive)
GI50 (RPMI-8226): 23.8 µM (inactive)
GI50 (PC-3): 13.9 µM (inactive)
GI50 (UACC-257): 21.4 µM (inactive)
GI50 (SF-539): 10.1 µM (inactive)
GI50 (786-0): 4.02 µM (inactive)
GI50 (SF-295): 5.02 µM (inactive)
GI50 (OVCAR-4): 15.7 µM (inactive)
GI50 (NCI-H23): 1.53 µM (inactive)
GI50 (K562): 25.6 µM (inactive)
GI50 (EKVX): > 100 µM (inactive)
GI50 (IGROV-1): 12.4 µM (inactive)
GI50 (SNB-19): 3.3 µM (inactive)
GI50 (SW-620): 10.8 µM (inactive)

CC(C)CC(C/C=C1/CC(CO)(COC(=O)C(C)(C)C)OC1=O)CC(C)C (stereo not given)
GI50 (HCT-116): 15.9 µM (inactive) and 13.8 µM (inactive)
GI50 (A498): 10 µM (inactive) and 9.02 µM (inactive)
GI50 (T47D): 19.5 µM (inactive) and 11.7 µM (inactive)
GI50 (NCI/ADR-RES): 14 µM (inactive) and 17.4 µM (inactive)
GI50 (OVCAR-8): 19 µM (inactive) and 17 µM (inactive)
GI50 (MDA-MB-231): 3.03 µM (inactive)
GI50 (HCT-15): 15 µM and 14.7 µM
GI50 (COLO 205): 0.136 µM (active)
GI50 (U-251): 8.13 µM (inactive)
GI50 (RXF 393): 16.1 µM (inactive) and 21.8 µM (inactive)
GI50 (SNB-75): 13.7 µM (inactive) and 11.1 µM (inactive)
GI50 (SR): 1.51 µM (inactive)
GI50 (UACC-62): 11.7 µM (inactive) and 15.2 µM (inactive)
GI50 (HOP-92): 0.893 µM (active)
GI50 (MOLT-4): 1.3 µM (inactive) and 2.14 µM (inactive)
GI50 (OVCAR-5): 6.7 µM (inactive) and 11.8 µM (inactive)
GI50 (M14): 12.1 µM (inactive) and 13.8 µM (inactive)
GI50 (CCRF-CEM): 0.069 µM (active)
GI50 (NCI-H522): 14.1 µM (inactive) and 14.8 µM (inactive)
GI50 (MCF7): 19.7 µM (inactive) and 18.2 µM (inactive)
GI50 (HCC 2998): 1.28 µM (inactive) and 1.27 µM (inactive)
GI50 (SK-MEL-2): 16.4 µM (inactive) and 11.9 µM (inactive)
GI50 (MDA-MB-435): 410 nM (active) and 818 nM (active)
GI50 (SK-OV-3): 19.3 µM (inactive)
GI50 (NCI-H460): 278 nM (active) and 209 nM (active)
GI50 (SN12C): 8.49 µM (inactive)
GI50 (BT-549): 11.7 µM (inactive) and 15.5 µM (inactive)
GI50 (SF-268): 10.8 µM (inactive) and 12.4 µM (inactive)
GI50 (PC-3): 8.89 µM (inactive) and 8.83 µM (inactive)
GI50 (UACC-257): 16.4 µM (inactive) and 16.8 µM (inactive)
GI50 (SF-539): 6.49 µM (inactive)
GI50 (OVCAR-4): 16.2 µM (inactive) and 18.2 µM (inactive)
GI50 (NCI-H23): 11.8 µM (inactive) and 10.9 µM (inactive)
GI50 (K562): 173 nM (active) and 123 nM (active)
GI50 (IGROV-1): 15.2 µM (inactive) and 12.1 µM (inactive)
GI50 (SNB-19): 10.5 µM (inactive) and 6.03 µM (inactive)
GI50 (SW-620): 4.37 µM (inactive) and 4.92 µM (inactive)

Source: ChEMBL document CHEMBL1201862, “PubChem BioAssay data set” (2004)
